Laboratory results as given in the NIST ThermoML archive (doi:10.1016/j.jct.2015.07.048).

Test: xn = mol fraction of the nth substance listed
Conditions: 100 kPa, Liquid; for viscosity: Cone and plate viscometry; for electrical conductivity: Direct current cell with electrodes; for mass density: Vibrating tube method

CCCn1cc[n+](C)c1.O=S(=O)([N-]S(=O)(=O)C(F)(F)F)C(F)(F)F + O=C1CCCO1
Conditions	electrical conductivity [S/m]	mass density [kg/m3]	viscosity [mPa·s]
293.15 K, x1 = 0.05	1.04	1185.12	–
293.15 K, x1 = 0.0999	–	1229.6	–
293.15 K, x1 = 0.1	1.37	–	3.42
293.15 K, x1 = 0.15	1.45	–	4.3
293.15 K, x1 = 0.1999	1.37	1295.75	5.28
293.15 K, x1 = 0.2912	1.2	1338.94	–
293.15 K, x1 = 0.2996	–	–	8.1
293.15 K, x1 = 0.4005	0.89	1377.51	11.48
293.15 K, x1 = 0.4986	0.707	1403.93	15.9
293.15 K, x1 = 0.6	0.595	1425.6	21.71
293.15 K, x1 = 0.6997	0.498	1442.85	28.23
293.15 K, x1 = 0.7998	0.428	1457.11	35.85
293.15 K, x1 = 0.8818	0.387	1467.07	43.07
293.15 K, x1 = 1	0.355	1479.32	54.19
298.15 K, x1 = 0.05	1.13	1180.18	–
298.15 K, x1 = 0.0999	–	1224.68	–
298.15 K, x1 = 0.1	1.5	–	3.16
298.15 K, x1 = 0.15	1.6	–	3.94
298.15 K, x1 = 0.1999	1.52	1290.81	4.75
298.15 K, x1 = 0.2912	1.38	1333.98	–
298.15 K, x1 = 0.2996	–	–	7.17
298.15 K, x1 = 0.4005	1.1	1372.56	9.96
298.15 K, x1 = 0.4986	0.87	1398.93	13.62
298.15 K, x1 = 0.6	0.692	1420.58	18.38
298.15 K, x1 = 0.6997	0.604	1437.83	23.68
298.15 K, x1 = 0.7998	0.526	1452.07	29.72
298.15 K, x1 = 0.8818	0.472	1462.02	35.46
298.15 K, x1 = 1	0.435	1474.24	43.94
303.15 K, x1 = 0.05	1.22	1175.2	–
303.15 K, x1 = 0.0999	–	1219.69	–
303.15 K, x1 = 0.1	1.63	–	2.92
303.15 K, x1 = 0.15	1.75	–	3.6
303.15 K, x1 = 0.1999	1.67	1285.84	4.3
303.15 K, x1 = 0.2912	1.56	1329.01	–
303.15 K, x1 = 0.2996	–	–	6.31
303.15 K, x1 = 0.4005	1.22	1367.63	8.69
303.15 K, x1 = 0.4986	1.02	1394.03	11.81
303.15 K, x1 = 0.6	0.796	1415.71	15.67
303.15 K, x1 = 0.6997	0.714	1432.97	19.81
303.15 K, x1 = 0.7998	0.629	1447.22	24.68
303.15 K, x1 = 0.8818	0.564	1457.17	28.84
303.15 K, x1 = 1	0.521	1469.4	35.92
308.15 K, x1 = 0.05	1.31	–	–
308.15 K, x1 = 0.1	1.76	–	2.68
308.15 K, x1 = 0.15	1.9	–	3.3
308.15 K, x1 = 0.1999	1.85	–	3.91
308.15 K, x1 = 0.2912	1.75	–	–
308.15 K, x1 = 0.2996	–	–	5.67
308.15 K, x1 = 0.4005	1.44	–	7.71
308.15 K, x1 = 0.4986	–	–	10.31
308.15 K, x1 = 0.6	–	–	13.51
308.15 K, x1 = 0.6997	–	–	17.13
308.15 K, x1 = 0.7998	–	–	21
308.15 K, x1 = 0.8818	–	–	24.51
308.15 K, x1 = 1	–	–	30
